Results taken from patent US7655431B2, “Compositions and methods based upon the kinase haspin” (The Brigham and Women's Hospital, Inc., priority 2004, dated 2010).
Where “and” joins values, the source holds several entries; their conditions need not be identical. Equal entries are not always repeated.

Tests used:
[1] = tested on: HeLa Tet-On cells transfected with vector alone; experiment: proliferation and cell cycle of vector-transfected HeLa Tet-On cells with doxycycline; type: cell-based, human
Excerpt: Using customized double stranded adapters, full length human haspin cDNA (amino acids 1-798, Higgins, Gene 267:55-69 (2001)) was ligated into the Hind III-Xba I sites of the expression vector pcDNA3 (Invitrogen) and, to generate myc-tagged haspin, cDNA encoding residues 2-798 was inserted into the pcDNA3-derived plasmid pCANmyc1. To generate a plasmid encoding EGFP-haspin, haspin cDNA encoding amino acids 2-798 is inserted into the Sac II-BamH I sites of pEGFP-C1 (Clontech). To generate inducible vectors, cDNA encoding myc-haspin from pCANmyc-haspin (Hind III-EcoR V) is blunt-ended and inserted into the Pvu II site of pTRE2/pur (BD Clontech) and Nhe I-Xba I fragments encoding EGFP-haspin or EGFP alone from pEGFP-haspin or pEGFP-C1, respectively are ligated into the Nhe I site of pTRE2pur. All constructs are verified by DNA sequencing. Transient transfection is carried out using Lipofectamine 2000 (Invitrogen). Stable transfection of HeLa Tet-On (BD Clontech) cells is carried out using Lipofectin with Plus Reagent (Invitrogen). After 24 h, cells are transferred to 96-well plates and incubated in medium containing 1 μg/ml puromycin and 100 μg/ml G418. Clones expressing myc-haspin or EGFP-haspin in the presence, but not absence, of 1 μg/ml doxycycline are selected by anti-myc immunoblotting or flow cytometric analysis of EGFP fluorescence respectively. […]

6His-haspin kinase = target: T1, 6His-haspin kinase (Homo sapiens, UniProt Q8TF76); experiment: ELISA-based microtiter plate haspin kinase assay; type: biochemical; settings: 100 μM ATP, 10 mM MnCl2, 20 min 37° C.
T1 construct: insertion of a PCR product encoding residues 471-798 of human haspin into the PshA I site of the vector pET45b(+); 6His (N); made in house; host or cells: E. coli BL21
T1 sequence (Q8TF76 471-798): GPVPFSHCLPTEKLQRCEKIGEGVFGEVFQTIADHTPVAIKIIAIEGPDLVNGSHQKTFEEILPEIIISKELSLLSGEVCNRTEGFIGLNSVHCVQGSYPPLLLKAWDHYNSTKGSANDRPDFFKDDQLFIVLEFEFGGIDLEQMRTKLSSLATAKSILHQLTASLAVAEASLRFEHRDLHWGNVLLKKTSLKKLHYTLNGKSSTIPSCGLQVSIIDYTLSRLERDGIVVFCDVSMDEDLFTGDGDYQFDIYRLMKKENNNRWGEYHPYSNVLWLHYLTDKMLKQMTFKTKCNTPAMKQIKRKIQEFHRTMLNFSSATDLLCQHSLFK
Experimental: In these assays, H3-GST substrate protein (or H3-T3A-GST non-phosphorylable control) was immobilized on 96-well microtiter plates by incubation in PBS overnight at 4° C. Following washing and blocking with 1% BSA/TBS, 6His-haspin kinase was added to the wells in 50 μl total volume of Hepes-buffered saline (HBS)/100 μM ATP/10 mM MnCl2 and allowed to phosphorylate the immobilized substrate for 20 min at 37° C. After washing thrice with TBS/0.1% Tween-20, affinity-purified polyclonal anti-phospho-histone H3 (Thr-3) antibodies were added for 1 h at room temperature. After washing, antibody binding (i.e. phosphorylation) was detected using 1/2000 dilution of donkey anti-rabbit IgG-Horse Radish […] (HRP) conjugate (Jackson) followed by tetramethylbenzidine (TMB) color development (BD Biosciences). Measurement of A450 nm-A570 nm (to correct for well-to-well variation in background absorbance) was carried out after addition of H2SO4.

Which results are given for C[C@H]1c2cccc(O)c2C(=O)C2=C(O)[C@]3(O)C(=O)C(C(N)=O)=C(O)[C@@H](N(C)C)[C@@H]3[C@@H](O)[C@@H]21 [Doxycycline, doxycycline]?
cell number relative to uninduced control ([1]; after 8 days, two experiments, vector alone): 104% and 115%; cell cycle progression ([1]; vector-transfected cells): no effect

Which “haspin kinase activity (phosphorylation of immobilized H3-GST)” value (6His-haspin kinase) does the source give for O=C(O)CN(CCN(CC(=O)O)CC(=O)O)CC(=O)O [EDTA] here?
The value was “inhibition”.

With ARTKQTAR [H3(1-8)] as the compound, how does the “haspin kinase activity (phosphorylation of immobilized H3-GST)” value (6His-haspin kinase) read?
Its value is “inhibition”.
